Source: patent US11918645B2, “Vaccines against hepatitis B virus” (priority 2012, dated 2024)

Legend:
[1] = preparation of pool 22
[2] = test system: HLA-DP4 (α1*01:03;β1*04:01); experiment: ProImmune REVEAL MHC class II binding assay of long peptides; set-up: species or system human; settings: percentage of the signal of the positive control peptide; positive binding score >=15%
[3] = target: T1, HLA-DR13 (α1*01:01;β1*13:01) (Homo sapiens, UniProt P01903+P01911, A100E/A169T/K41T/L162R/M171V/P40S/Q125H/Q178H/Q39Y/Q99D/R42S/S66N/W38E/Y61H); experiment: as above; settings: percentage of the signal of the positive control peptide; positive binding score >=15%
T1 construct: purchased ProImmune
Description: The highly frequent HLA class II alleles HLA-DR1 (α1*01:01;β1*01:01), HLA-DR15 (α1*01:01;β1*15:01), HLA-DR3 (α1*01:01;β1*03:01), HLA-DR4 (α1*01:01;β1*04:01), HLA-DR11 (α1*01:01;β1*11:01), HLA-DR13 (α1*01:01;β1*13:01), and HLA-DR7 (α1*01:01;β1*07:01) were selected. Each peptide was given a score relative to the positive control peptide, which is a known T-cell epitope.

[4] = test system: HLA-DR3 (α1*01:01;β1*03:0); experiment: as above; set-up: species or system human; settings: percentage of the signal of the positive control peptide; positive binding score >=15%
Description: (§1) The highly frequent HLA class II alleles HLA-DR1 (α1*01:01;β1*01:01), HLA-DR15 (α1*01:01;β1*15:01), HLA-DR3 (α1*01:01;β1*03:01), HLA-DR4 (α1*01:01;β1*04:01), HLA-DR11 (α1*01:01;β1*11:01), HLA-DR13 (α1*01:01;β1*13:01), and HLA-DR7 (α1*01:01;β1*07:01) were selected. Each peptide was given a score relative to the positive control peptide, which is a known T-cell epitope. The score of the test peptide is reported quantitatively as a percentage of the signal generated by the positive control peptide, and the peptide is indicated as having a putative pass or fail result. Good binders are considered to be those peptides with scores >=15% of the positive control as defined by Proimmune.

[5] = test system: HLA-DR1 (α1*01:01;β1*01:01); experiment: as above; set-up: species or system human; settings: percentage of the signal of the positive control peptide; positive binding score >=15%
Description: as §1

HLA-A*2402 = HLA-A*2402 (Homo sapiens, UniProt P04439, D101N/D140Y/D185E/E176V/E190D/F33S/G103R/G107R/I119L/I121M/I306V/K335N/L105A/L180Q/L300P/N151K/N90K/Q86E/Q94H/R106L/R138H/R89G/T104I/T345S/V100E/W191G/Y123F); experiment: ProImmune REVEAL MHC class I binding assay of nonamers; settings: score as % of positive control peptide
Description: (§2) The number of HLA class I binding registers contained in each peptide may be determined by determining the ability of the peptide to bind to a range of frequently occurring HLA class I molecules. HLA class I binding may be measured using the ProImmune REVEAL® MHC-peptide Binding Assay (ProImmune Ltd, Oxford, UK). The REVEAL™ MHC peptide-binding assay measures the ability of each peptide to stabilize the ternary MHC-peptide complex for […], HLA-A*0201, HLA¬A*0301, HLA-A*2402, HLA-B*0702, HLA-B*0801, HLA-B*3501 representative of main HLA class I supertypes. Each tested peptide is given a score relative to a pass/fail control peptide and also compared to a positive control peptide.
(§3) Detection is based on the presence or absence of the native conformation of the MHC-peptide complex. The highly frequent HLA class I alleles (HLA-A*0201, A*0301, A*1101, A*2402, B*0702, B*0801, and B*3501) were selected. Binding to MHC molecules was compared to that of a known T-cell epitope, a positive control peptide, with very strong binding properties. […] The score of the test peptide is reported quantitatively as a percentage of the signal generated by the positive control peptide, and the peptide is indicated as having a putative pass or fail result. Good binders are considered to be those peptides with scores 45% of the positive control as defined by ProImmune.

HLA-B*0801 = HLA-B*0801 (Homo sapiens, UniProt P01889, A93T/A95T/D138N/E176V/E187T/K202T/Q94N/R180D/S35A/V36M/Y33D/Y91F); experiment: as above; settings: score as % of positive control peptide
Description: as §2, §3

HLA-B*3501 = HLA-B*3501 (Homo sapiens, UniProt P01889, A329T/A93T/A95T/C349S/D201E/D98Y/E176V/E187L/E204Q/E69T/I218V/K202T/L119I/Q94N/R155S/R180L/S121R/S35A/S48A/T118I/V127L/V306I/V36M/Y140S/Y91F); experiment: as above; settings: score as % of positive control peptide
Description: as §2, §3

HLA-A*1101 = target: T2, HLA-A*1101 (Homo sapiens, UniProt P04439, A114D/D185E/E176A/F33Y/L180Q/S129P/T187R); experiment: as above; settings: score as % of positive control peptide
T2 construct: purchased ProImmune
Description: as §2, §3

HLA-A*0201 = HLA-A*0201 (Homo sapiens, UniProt P04439, D140Y/D185E/D98H/E176V/E277Q/G131W/G231S/I119V/I121R/I166T/I218V/L300P/L318F/N151K/N90K/P208A/P217A/Q86G/Q94H/R138H/R169H/T345S); experiment: as above; settings: score as % of positive control peptide
Description: as §2, §3

HLA-A*0301 = target: T3, HLA-A*0301 (Homo sapiens, UniProt P04439); experiment: as above; settings: score as % of positive control peptide
T3 construct: purchased ProImmune
Description: as §2, §3

HLA-B*0702 = target: T4, HLA-B*0702 (Homo sapiens, UniProt P01889); experiment: as above; settings: score as % of positive control peptide
T4 construct: purchased ProImmune
Description: as §2, §3

HLA class II alleles = experiment: ProImmune REVEAL MHC class II binding assay, summary over the seven alleles; set-up: species or system human; settings: number of class II alleles for which positive binding (score >=15%) was detected
Description: as §1

[6] = test system: PBMC from chronic HBV-infected subjects; experiment: IFNγ ELISpot of PBMC restimulated with individual unconjugated HBV long peptides (Example 5); type: cell-based, human; settings: for T cell responses (IFNγ ELISpot), level and frequency of responders: HBeAg-negative inactive carriers and HBeAg-negative treated subjects, 5 μg/mL, 18 h, FIGS. 9 and 10; for T cell responses (IFNγ ELISpot) grouped by infecting HBV genotype: genotypes A, B, C & D, FIG. 11; for T cell responses (IFNγ ELISpot) grouped by ethnic background: three ethnic groups, FIG. 12
Method: One vial of PBMC from each subject (containing 1×10^7 cells) was thawed and lymphocyte numbers were determined using a Scepter™ automated handheld cell counter. PBMC were cultured in 2 mL culture medium (CM: RPMI-1640 Glutamax supplemented with 5% human AB serum) in 24 well cell culture plates at a concentration of 1×10^6 cells/mL for a total of 11 days. Cells were stimulated with a mixture of the nine HBV-derived long peptides described in Example 3.
Each peptide was used at a final concentration of 1 μg/peptide/mL. On Day 4, IL-2 and IL-15 were added to the cultures to final concentrations of 10 IU/mL and 10 ng/mL respectively. On Day 10, cells were washed twice in CM and cultured with 10 IU/mL IL-2 for 1 additional day. On Day 11, cells were washed twice in CM, counted and incorporated in a human IFNγ (interferon-gamma) ELISpot assay or intracellular cytokine staining.
Cells from short term cultures were plated in triplicate wells at 5×10^4 PBMC/well. Final antigen concentrations used were: 5 μg/mL for each individual peptides; PHA positive control: 1 μg/mL.

[7] = target: T5, HLA-DR15 (α1*01:01;β1*15:01) (Homo sapiens, UniProt P01903+P01911); experiment: ProImmune REVEAL MHC class II binding assay of long peptides; settings: percentage of the signal of the positive control peptide; positive binding score >=15%
T5 construct: purchased ProImmune
Description: as §1

[8] = target: T6, HLA-DR7 (α1*01:01;β1*07:01) (Homo sapiens, UniProt P01903+P01911, A100R/A102G/A103Q/D57E/D86V/E43K/F76Y/K127E/L162R/M171V/P40G/Q125H/Q99D/R195Q/R33Q/R42Y/R54Q/S133A/S149N/S66F/T210M/V115G/Y107V/Y59L/Y89S); experiment: as above; settings: percentage of the signal of the positive control peptide; positive binding score >=15%
T6 construct: purchased ProImmune
Description: as §1

HLA class I alleles = experiment: ProImmune REVEAL MHC class I binding assay, summary over the seven alleles; set-up: species or system human; settings: for Number of allele (b): number of class I alleles for which positive binding was detected; for Number of HLA binders (a): total number binding epitopes detected for each long peptide, seven class I alleles
Description: as §2, §3

T1 sequence (P01903 26-216, other chains not shown): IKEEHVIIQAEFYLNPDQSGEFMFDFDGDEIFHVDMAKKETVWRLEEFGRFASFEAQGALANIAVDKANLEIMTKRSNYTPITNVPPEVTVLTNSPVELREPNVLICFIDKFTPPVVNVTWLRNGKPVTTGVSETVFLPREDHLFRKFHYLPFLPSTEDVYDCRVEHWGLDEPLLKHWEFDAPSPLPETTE

Compound	dispersibility / solubility [1]	binding score, HLA-DP4 (α1*01:03;β1*04:01) [2]	binding score, HLA-DR13 (α1*01:01;β1*13:01) [3]	binding score, HLA-DR3 (α1*01:01;β1*03:0) [4]	binding score, HLA-DR1 (α1*01:01;β1*01:01) [5]	Number of nonamers having a binding score >= 45%, HLA-A*2402 (HLA-A*2402)	Number of nonamers having a binding score >= 45%, HLA-B*0801 (HLA-B*0801)	Number of nonamers having a binding score >= 45%, HLA-B*3501 (HLA-B*3501)	Number of nonamers having a binding score >= 45%, HLA-A*1101 (HLA-A*1101)	Number of nonamers having a binding score >= 45%, HLA-A*0201 (HLA-A*0201)	Number of nonamers having a binding score >= 45%, HLA-A*0301 (HLA-A*0301)	Number of nonamers having a binding score >= 45%, HLA-B*0702 (HLA-B*0702)	Number of allele (a) (HLA class II alleles)	T cell responses (IFNγ ELISpot), level and frequency of responders [6]	T cell responses (IFNγ ELISpot) grouped by infecting HBV genotype [6]	T cell responses (IFNγ ELISpot) grouped by ethnic background [6]	binding score, HLA-DR15 (α1*01:01;β1*15:01) [7]	binding score, HLA-DR7 (α1*01:01;β1*07:01) [8]	Number of allele (b) (HLA class I alleles)	Number of HLA binders (a) (HLA class I alleles)
CC[C@H](C)[C@H](NC(=O)[C@H](Cc1ccccc1)NC(=O)[C@H](CC(C)C)NC(=O)[C@H](Cc1ccccc1)NC(=O)[C@@H](NC(=O)[C@@H](NC(=O)[C@H](Cc1ccccc1)NC(=O)[C@H](CCCNC(=N)N)NC(=O)[C@H](CCCNC(=N)N)NC(=O)[C@@H](N)CC(C)C)[C@@H](C)CC)[C@@H](C)CC)C(=O)N[C@@H](CC(C)C)C(=O)N[C@@H](CC(C)C)C(=O)N[C@@H](CC(C)C)C(=O)N[C@@H](CS)C(=O)N[C@@H](CC(C)C)C(=O)N[C@H](C(=O)N[C@@H](Cc1ccccc1)C(=O)N[C@@H](CC(C)C)C(=O)N[C@@H](CC(C)C)C(=O)N[C@H](C(=O)O)C(C)C)[C@@H](C)CC [SEQ ID NO: 212]	could not be dispersed due to insolubility																			
CC[C@H](C)[C@H](NC(=O)[C@H](CC(C)C)NC(=O)[C@H](CS)NC(=O)[C@H](CC(C)C)NC(=O)[C@H](CC(C)C)NC(=O)[C@H](CC(C)C)NC(=O)[C@@H](NC(=O)[C@@H](N)Cc1ccccc1)[C@@H](C)CC)C(=O)N[C@@H](Cc1ccccc1)C(=O)N[C@@H](CC(C)C)C(=O)N[C@@H](CC(C)C)C(=O)N[C@H](C(=O)N[C@@H](CC(C)C)C(=O)N[C@@H](CC(C)C)C(=O)N[C@@H](CC(=O)O)C(=O)N[C@@H](Cc1ccc(O)cc1)C(=O)N[C@@H](CCC(N)=O)C(=O)NCC(=O)N[C@@H](CCSC)C(=O)N[C@@H](CC(C)C)C(=O)O)C(C)C [SEQ ID NO: 213]	could not be dispersed due to insolubility																			
NP856(K): unconjugated HBV long peptide, core 839-873 + KKK (LTFGRETVLEYLVSFGVWIRTPPAYRPPNAPILSTKKK; HBV CONSENSUS SEQUENCE)		10.72%	0.00%	0.13%	2.33%	4	1	0	0	4	0	2	0	highest level of responses in both patient populations and in the highest proportion of subjects	highest responses across all four genotypes A, B, C & D	highest responses across all three ethnic groups	5.71%	0.40%	4	11
NP877: unconjugated HBV long peptide, core 860-890		0.04%		5.58%	0.24%	2	1	0	0	2	0	1	1	highest level of responses in both patient populations and in the highest proportion of subjects	highest responses across all four genotypes A, B, C & D	highest responses across all three ethnic groups	0.09%	2.78%	4	6
